# According to patent US20230134760A1, “CAR AND NRF2 DUAL ACTIVATOR AGENTS FOR CYCLOPHOSPHAMIDE-BASED AND DOXORUBICIN-BASED TREATMENTS OF CANCER” (priority 2020, published 2023):
# Tests used:
# Nrf2 = Nrf2 luciferase reporter assay in HepG2 cells (ARE); format: cell-based; settings: HepG2, screening, FIG. 37b
# Description: HepG2 cells were cultured in 24-well plates (1×10^5 cells/well) and transfected with either a hCAR1+A expression vector (30 ng/well), a CYP2B6-2.2k reporter (60 ng/well) reporter, and pRL-TK (10 ng/well) or a ARE expression vector using X-tremeGENE 9 DNA Transfection Reagent (Sigma-Aldrich). After an overnight transfection, cells were treated with a vehicle control (0.1% DMSO), RIF (10 μM), DL7076 (1 μM, 5 μM, and 10 μM) for 24 hours. Cell lysates were assayed for luciferase activity and normalized against the activity of the Renilla luciferase using a Dual-Luciferase Kit (Promega).
# H9c2 cells = assay: Multi-organ co-culture (BT549/HPH/H9c2), H9c2 viability; format: cell-based, rat; settings: DL7076 10 μM
# Description: Additionally, HPH were cultured in collagen-coated 6-well plates and pre-treated as described in the previous co-culture system. BT549 and H9c2 cells were plated on similar modified coverslips 0.8×10^5 cells and allowed to attach for 24 hours during hepatocyte pre-treatment. […] Following pre-treatment, BT549 coverslips were inserted adjacent to H9c2 coverslips over the sandwich cultured HPH as depicted in FIG. 43a. […] Both BT549 and H9c2 cells were harvested at indicated time points and assess for viability, apoptosis, and DNA damage as detailed further. H9c2 cells were seeded 0.8×10^5 in 24-well plates. […] A Cell Counting Kit-8 (Enzo) assay was carried out. Cell viability was described as a percent of vehicle control (0.1% DMSO).
# BT549 cells = assay: Cell viability assay, DOX-induced toxicity in BT549 cells; format: cell-based; settings: BT549, DOX 2.5 μM
# Description: (§1) Immortalized triple negative breast cancer cell lines MDA-MB-231 and BT549 were obtained from ATCC (Rockville, Md.). Additionally, the h9c2 cell line was purchased from ATCC (Rockville, Md.). […] Human iPSC-derived cardiomyocytes were maintained in Mtesr plus and supplemented according to protocol. These cells were treated for 2 hrs or an overnight as indicated. Following a 2 hr pretreatment, cells were co-treated with DOX at indicated concentrations for 6 or 22 hours. Following the overnight treatments, RNA or protein was isolated. HPH were seeded in collagen-coated 24 well plates and pretreated for 24 hrs. BT549 were seeded on inverted coverslips. After a 24 hr pretreatment, hepatocytes were co-administered as indicated and coverslips were inserted. The cell lines were used for less than 60 passages. H9c2 cells were seeded 0.8×10^5 in 24-well plates. […] A Cell Counting Kit-8 (Enzo) assay was carried out. Cell viability was described as a percent of vehicle control (0.1% DMSO).
# HO-1 = HO-1 expression in human iPSC-derived cardiomyocytes; format: cell-based; settings: human iPSC-derived cardiomyocytes, 1, 5, 10 μM
# Description: as §1, with “passages. After 24 h treatment, HPH, BT549, MDA-MB-231, and” for “passages.”, “washed and a phenol-chloroform extraction was used to isolate total RNA with the TRIzol reagent (ThermoFisher, Rockford, Ill.). Reverse transcription was performed on extracted RNA (1 μg) to produce cDNA using the High Capacity cDNA Archive kit according to manufacturer's instructions (Applied Biosystems, Foster, Calif.).” for “seeded 0.8×10^5 in 24-well plates.”, “Quantification of expression changes” for “A Cell Counting Kit-8 (Enzo) assay”, “done by the 2^ΔΔCt method, normalizing to GAPDH” for “carried out. Cell viability was described”, “the housekeeping gene and determining the fold change compared to” for “a percent of vehicle”, “values (n=3).” for “(0.1% DMSO).”
# [1] = system: iPSC-derived cardiomyocytes; assay: Cell viability, DOX-induced cytotoxicity in iPSC-derived cardiomyocytes; format: cell-based, human; settings: co-administration with DOX
# Description: as §1
# hCAR = assay: Ad/EYFP-hCAR translocation assay in HPH; format: cell-based, human; settings: Ad-EYFP-hCAR-infected HPH; DL7076 10 μM, PB 1 mM
# Description: HPH were seeded on collagen-coated 12-well plates. 24 hours after seeding, HPH were infected with Ad/EYFP-hCAR at a concentration of 5 μL/mL of media and incubated overnight. HPH infected cells were treated with a vehicle control (DMSO 0.01%), a positive control (1 mM PB), and compounds of interest for 8 h. Fluorescence was viewed using the YFP channel (Nikon Eclipse Ti) and quantified by identifying the number of total cells expressing EYFP-hCAR over EYFP-hCAR present in the nucleus. Representative images are shown, and quantitative data represents the mean±SD of 3 individual images for each treatment group.
smiles,measurement,setting,value
"O=C(NCCN=C=S)c1c(-c2ccc3ccccc3c2)nc2sccn12 [DL7076, N-(2-Isothiocyanatoethyl)-6-(naphthalen-2-yl)imidazo[2,1-b]thiazole-5-carboxamide]",Nrf2 luciferase activity (potency and efficacy),Nrf2,higher potency and efficacy
same,H9c2 viability during CPA/DOX treatment,H9c2 cells,h9c2 cardiomyocyte viability can be protected during CPA/DOX treatment
same,reversal of DOX-induced toxicity (viability),BT549 cells,this efficient reversal was not shown
same,HO-1 expression,HO-1,concentration-dependently induced
same,reversal of DOX-induced cytotoxicity,[1],efficiently reversed by co-administration of DL7076
same,EYFP-hCAR nuclear translocation,hCAR,triggered hCAR nuclear translocation
